Data on three compounds can be found in article PMC9532399, “The lysosomal transporter TAPL has a dual role as peptide translocator and phosphatidylserine floppase” (Nature Communications, 2022).

Type in all cases: biochemical
Assay [1] has as its target T1, mouse TAPL ΔTMD0 (Mus musculus, UniProt Q9JJ59).
T1 construct: thrombin cleavage site (C); eGFP (C); 10XHis (C); made in house; host or cells: Trichoplusia ni High Five (Hi5) insect cells, baculovirus (pVL1393)
T1 sequence (Q9JJ59 143-762): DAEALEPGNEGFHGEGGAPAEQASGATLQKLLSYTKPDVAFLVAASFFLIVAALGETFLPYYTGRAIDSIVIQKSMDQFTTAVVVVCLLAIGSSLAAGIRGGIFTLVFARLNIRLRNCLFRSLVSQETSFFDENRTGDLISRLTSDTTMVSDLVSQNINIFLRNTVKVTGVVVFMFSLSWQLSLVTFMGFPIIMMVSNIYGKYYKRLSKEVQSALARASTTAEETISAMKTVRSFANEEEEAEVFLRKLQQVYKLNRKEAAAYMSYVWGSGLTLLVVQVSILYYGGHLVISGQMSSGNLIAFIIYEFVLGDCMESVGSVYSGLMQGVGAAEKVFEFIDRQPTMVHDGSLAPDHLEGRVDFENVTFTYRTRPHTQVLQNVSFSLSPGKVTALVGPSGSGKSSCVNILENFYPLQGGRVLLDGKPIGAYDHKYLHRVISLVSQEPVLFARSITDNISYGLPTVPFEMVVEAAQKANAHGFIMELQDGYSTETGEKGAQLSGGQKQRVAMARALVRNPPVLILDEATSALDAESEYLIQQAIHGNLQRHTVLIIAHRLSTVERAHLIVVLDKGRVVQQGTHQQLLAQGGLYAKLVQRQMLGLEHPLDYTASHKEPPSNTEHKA
Put plainly: Lipid-stimulated ATPase assay, DM-purified ΔTMD0. The method, then:
(§1) The ATPase activities of proteins obtained after various purification procedures were determined by NADH-coupled spectrophotometric assays. 10 μg of DM-purified or nanodisc-reconstituted protein was added to 140 μL of reaction buffer containing 50 mM HEPES–KOH pH 8.0, 60 μg/mL pyruvate kinase (Roche), 16 μg/mL lactate dehydrogenase (Roche), 10 mM phosphoenolpyruvate (Roche), 0.3 mM NADH, 3 mM ATP, 10 mM MgCl2, and 0.17% (w/v) DM in the presence or absence of 250 μM peptide. For proteins reconstituted into nanodiscs, DM was not added to the reaction buffer. For lipid-stimulated ATPase assays, the thin film of lipids was hydrated in 100 μL of buffer containing 50 mM HEPES–KOH pH 8.0 and 10 mM MgCl2 to yield a 10 mM solution. After sonication of the lipid solution for 10 min to decrease its turbidity, the reaction was initiated by adding varying concentrations of lipids to the mixture. ATP hydrolysis activity was monitored at 37 °C for 3 min by measuring the rate of decline of NADH absorbance at 340 nm. To inhibit ATP hydrolysis, the reaction mixture was incubated with 3 mM AMP-PNP or 8 mM NaF/2 mM BeSO4 for 5 min at RT. The kinetic parameters of ATP hydrolysis were calculated by fitting the initial rates of ATP hydrolysis to the Michaelis–Menten equation using PRISM 4.0 (GraphPad software).

The target in another assay is T2, TAPL Y405A mutant (Mus musculus, UniProt Q9JJ59, Y405A).
T2 construct: thrombin cleavage site (C); eGFP (C); 10XHis (C); made in house; host or cells: Trichoplusia ni High Five (Hi5) insect cells, baculovirus (pVL1393)
T2 sequence (Q9JJ59 143-762 Y405A): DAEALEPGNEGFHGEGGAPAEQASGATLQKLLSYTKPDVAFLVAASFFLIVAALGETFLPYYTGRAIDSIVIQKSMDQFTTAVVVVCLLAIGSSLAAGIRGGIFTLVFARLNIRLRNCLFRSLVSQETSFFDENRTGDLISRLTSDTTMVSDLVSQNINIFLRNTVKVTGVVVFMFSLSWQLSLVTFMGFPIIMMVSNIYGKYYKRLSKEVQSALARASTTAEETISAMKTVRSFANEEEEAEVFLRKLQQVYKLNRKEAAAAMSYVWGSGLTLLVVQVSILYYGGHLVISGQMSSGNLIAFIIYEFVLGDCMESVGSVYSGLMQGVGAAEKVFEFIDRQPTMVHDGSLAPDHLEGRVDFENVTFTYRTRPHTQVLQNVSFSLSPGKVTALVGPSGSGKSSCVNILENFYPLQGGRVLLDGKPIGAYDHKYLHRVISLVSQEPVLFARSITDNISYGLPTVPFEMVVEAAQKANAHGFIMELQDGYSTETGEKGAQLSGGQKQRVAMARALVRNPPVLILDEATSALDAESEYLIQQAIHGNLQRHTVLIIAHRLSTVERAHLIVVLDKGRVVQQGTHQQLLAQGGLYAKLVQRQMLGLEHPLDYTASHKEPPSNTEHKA
Put plainly: Lipid-stimulated ATPase assay, DM-purified Y405A mutant. The note with it: Y405A vs WT. On the procedure:
as §1

Assay [2] deals with T1, mouse TAPL ΔTMD0. Kind of assay: Dithionite-based flip-flop (floppase) assay of NBD*-labeled lipids, ΔTMD0 proteoliposomes. The note with it: 10% (mol/mol) unlabeled POPS, or presence of the 9-mer peptide. On the procedure:
All lipids used in reconstitution were purchased from Avanti Polar Lipids, Inc. (purity > 99%). The in vitro flip–flop assay was performed using NBD* dye-labeled proteoliposomes as described previously. Briefly, E. coli polar lipids and egg PC were mixed in a 1:1 molar ratio, and 0.5% (mol/mol) NBD*-lipid was added. The lipid mixture was then dried under nitrogen gas. The NBD*-lipids used were 18:1-06:0 NBD*-PS (1-oleoyl-2-{6-[(7-nitro-2-1,3-benzoxadiazol-4-yl)amino]hexanoyl}-sn-glycero-3-phosphoserine), 18:1-06:0 NBD*-PC (1-oleoyl-2-{6-[(7-nitro-2-1,3-benzoxadiazol-4-yl)amino]hexanoyl}-sn-glycero-3-phosphocholine), 18:1-06:0 NBD*-PG (1-oleoyl-2-{6-[(7-nitro-2-1,3-benzoxadiazol-4-yl)amino]hexanoyl}-sn-glycero-3-[phospho-rac-(1-glycerol)]), 18:1-06:0 NBD*-PE (1-oleoyl-2-{6-[(7-nitro-2-1,3-benzoxadiazol-4-yl)amino]hexanoyl}-sn-glycero-3-phosphoethanolamine), and 25-NBD*-Cholesterol (25-[N-[(7-nitro-2-1,3-benzoxadiazol-4-yl)methyl]amino]−27-norcholesterol). Thin lipid films were solubilized in 20 mM HEPES–NaOH pH 8.0, 200 mM NaCl and 5% (v/v) glycerol, incubated at RT for 30 min and subjected to 5 freeze–thaw cycles. After extrusion with a Mini-Extruder at 65 °C, final lipid concentrations were determined by phosphorus assays. Briefly, 10 μL of extruded lipid was added to 10 μL of 2% (w/v) ammonium molybdate and 300 μL of concentrated perchloric acid. The mixture was heated at 250 °C for 30 min, then cooled to RT and mixed with 1.5 mL of 0.4% (w/v) ammonium molybdate and 250 μL of 9% (w/v) L-ascorbic acid. It was again heated at 100 °C for 6 min and cooled to RT. Lipid concentrations were calculated from the absorbance at 820 nm using a standard curve prepared with NaH2PO4 solution. After accurately determining the lipid concentration, DM-purified protein and 5 mM lipid suspension (solubilized in 5 mM DM) were mixed 1:25 (w/w). After incubation at 4 °C for 1.5 h, DM detergent was removed with 75 mg Bio-beads SM-2 by periodic gentle shaking for 1 h at 4 °C (Supplementary Fig. 5a). The beads were replaced once, followed by an additional incubation at 4 °C for 2 h to completely remove detergent. The resulting proteoliposomes were collected by ultracentrifugation at 200,000×g for 1.5 h at 4 °C.
To measure the flip–flop activity, 10 μL of 2 mM NBD*-labeled proteoliposomes were added to 100 μL of reaction buffer (20 mM HEPES–NaOH pH 8.0, 200 mM NaCl, 5 mM ATP and 5% (v/v) glycerol) in the presence of 2 mM MgCl2 (or NaCl), and incubated at 37 °C for 1 h. The mixture was transferred to a 96-well plate and time-dependent fluorescence (λex/λem = 460/538 nm) was recorded every 30 s for 26 min using a fluorescence spectrophotometer (Gemini XPS). After the baseline fluorescence had stabilized, 10 mM sodium dithionite was added to quench the fluorescence of NBD*-lipid present in the outer leaflets of the liposomes. The initial rapid drop and subsequent slow decline in fluorescence intensity were monitored. When a new steady state was established, 1% (v/v) Triton X-100 was added to completely disrupt the liposomes. The net percentage of NBD*-lipid translocated across the lipid bilayer was calculated from the following equation[72]: the percentage of protected NBD*-lipid in the inner leaflet = [(FD−F0)/(FT−F0)]×100, and that of accessible NBD*-lipid in the outer leaflet = [(FT−FD)/(FT−F0)]×100, where FT is the total fluorescence of the sample before the addition of dithionite, FD is the fluorescence of the sample after quenching with dithionite, and F0 is any residual fluorescence of the sample after solubilization with Triton X-100. Fluorescence values (FT, FD, F0) were calculated as the averages of 5 points on the respective plateau lines. The ΔTMD0-mediated lipid floppase activity was determined by subtracting the percentage of NBD*-lipid fluorescence measured in the presence of Na^+/ATP from that measured in the presence of Mg^2+/ATP.

Assay [3] deals with T1, mouse TAPL ΔTMD0. Put plainly: NADH-coupled ATPase assay, DM-purified ΔTMD0. The note with it: in the presence of 9-mer peptide. On the procedure: as §1
Setting [4] is: lipid stimulation, 3 mM ATP, means ± SEM.

Regarding `CC(C)CCC[C@@H](C)[C@H]1CC[C@H]2[C@@H]3CC=C4C[C@@H](OC(=O)CCC(=O)O)CC[C@]4(C)[C@H]3CC[C@]12C` [CHS, cholesteryl hemisuccinate], the “Vmax relative to POPG-stimulated ATPase activity” value on mouse TAPL ΔTMD0 [1] (CHS vs POPG) was ~ 51%. In addition, the “maximal ATPase activity (turnover)” value at mouse TAPL ΔTMD0 [1] (lipid stimulation, 3 mM ATP) turned out to be 80 min⁻¹. In addition, on mouse TAPL ΔTMD0 [1] (setting [4]), the Km – broadly, the substrate concentration at which the rate is half of its maximum – is 127 ± 28 µM and the “maximal ATPase activity (Vmax)” value was determined as 589 ± 18 nmol/mg/min. In addition, the “response of Y405A ATPase to lipid” value on TAPL Y405A mutant is “significantly reduced basal and lipid-stimulated ATPase activity”.
As to `CCCCCCCC/C=C\CCCCCCCC(=O)O[C@H](COC(=O)CCCCCCCCCCCCCCC)COP(=O)(O)OC[C@H](N)C(=O)O` [POPS, 1-palmitoyl-2-oleoyl-sn-glycero-3-phospho-l-serine], the “maximal ATPase activity (turnover)” value at mouse TAPL ΔTMD0 [1] (lipid stimulation, 3 mM ATP) came out at 109 min⁻¹. The “maximal ATPase activity (Vmax)” value on mouse TAPL ΔTMD0 [1] (setting [4]) is reported as 808 ± 44 nmol/mg/min. The “response of Y405A ATPase to lipid” value at TAPL Y405A mutant is “significantly reduced basal and lipid-stimulated ATPase activity”. For the same compound, on mouse TAPL ΔTMD0 [2], the “effect on translocation of NBD*-PS” value is listed as “significantly inhibited”.
In the case of ADP·BeF3, at mouse TAPL ΔTMD0 [3], the “ATP hydrolysis in presence of ATP analogs” value is listed as “prevented ATP hydrolysis”.
